Source: patent US5665721A, “Heterocyclic substituted cyclopentane compounds” (Abbott Laboratories, priority 1995, dated 1997)

Biological target: adenosine kinase (Homo sapiens, UniProt P55263)
Experiment: In vitro inhibition of adenosine kinase activity
Format: biochemical
Text: The adenosine kinase to be inhibited can be located in vitro, in situ or in vivo. Where the adenosine kinase is located in vitro, adenosine kinase is contacted with the inhibitor compound, typically by adding the compound to an aqueous solution containing the enzyme, radiolabeled substrate adenosine, magnesium chloride and ATP. The enzyme can exist in intact cells or in isolated subcellular fractions containing the enzyme. The enzyme is then maintained in the presence of the inhibitor for a period of time and under suitable physiological conditions. Means for determining maintained times are well known in the art and depend inter alia on the concentrations of enzyme and the physiological conditions. Suitable physiological conditions are those necessary to maintain adenosine kinase viability and include temperature, acidity, tonicity and the like. Inhibition of adenosine kinase can be performed, by example, according to standard procedures well known in the art (Yamada et at., Comp. Biochem. Physiol. 1982, 71B: 367-372).
In vitro adenosine kinase activity can be measured using any of the standard procedures well known in the art. By way of example, cells containing adenosine kinase, such as IMR-32 human neuroblastoma cells, are cultured in the presence and absence of an inhibitor. Inhibition is measured as the ability to inhibit phosphorylation of endogenous or externally applied ^14 C-adenosine by these cells. The cells can be intact or broken. The specificity of adenosine kinase inhibitory activity is determined by studying the effects of inhibitors on adenosine A1 and A2a receptor binding, adenosine deaminase activity and adenosine transport.
Numerous inhibitor compounds of the present invention were tested in vitro and found to inhibit adenosine kinase activity. The results of some representative studies are shown below in Tables 1 and 2.

adenosine kinase, sequence (P55263 whole entry, species assumed): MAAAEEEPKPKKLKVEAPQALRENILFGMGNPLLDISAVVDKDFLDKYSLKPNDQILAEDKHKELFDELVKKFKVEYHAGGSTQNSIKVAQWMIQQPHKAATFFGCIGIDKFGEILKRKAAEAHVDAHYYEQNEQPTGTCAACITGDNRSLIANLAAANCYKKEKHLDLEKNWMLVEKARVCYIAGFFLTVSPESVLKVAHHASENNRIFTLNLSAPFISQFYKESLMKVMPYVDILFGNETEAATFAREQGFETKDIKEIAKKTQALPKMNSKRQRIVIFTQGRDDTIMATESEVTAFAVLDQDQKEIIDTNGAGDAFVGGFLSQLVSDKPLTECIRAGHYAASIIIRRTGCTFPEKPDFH

| IC50 (Table 1, in vitro) [µM] | SMILES | other results |
| --- | --- | --- |
| – | N[C@@H]1C=C[C@H](n2cc(I)c3c(Cl)ncnc32)C1 | IC50 (Table 1, in vitro, single structure): 0.0025 µM |
| – | O=C(N[C@H]1C[C@@H](n2cc(I)c3c(Cl)ncnc32)[C@H](O)[C@@H]1O)c1cccnc1 | IC50 (Table 2, in vitro): 0.005 µM |
| 0.09 | O[C@@H]1[C@H](O)[C@@H](O)C[C@H]1n1cc(Cl)c2c(Cl)ncnc21 [drawing 13 (R5=Cl, R6=Cl), N7-((1'R,2'S,3'R,4'S)-2',3',4'-trihydroxycyclopentyl)-4,5-dichloro-pyrrolopyrimidine] | – |
| 0.01 | O[C@@H]1[C@H](O)[C@@H](O)C[C@H]1n1cc(I)c2c(Cl)ncnc21 [drawing 13 (R5=Cl, R6=I), N7-((1'R,2'S,3'R,4'S)-2',3',4'-trihydroxycyclopentyl)-4-chloro-5-iodo-pyrrolopyrimidine] | – |
| 0.045 | O[C@@H]1[C@H](O)[C@@H](O)C[C@H]1n1cc(-c2ccccc2)c2c(Cl)ncnc21 [drawing 13 (R5=Cl, R6=Ph), N7-((1'R,2'S,3'R,4'S)-2',3',4'-trihydroxycyclopentyl)-4-chloro-5-phenyl-pyrrolopyrimidine] | – |
| 0.1 | O[C@@H]1[C@H](O)[C@@H](O)C[C@H]1n1cc(C#Cc2ccccc2)c2c(Cl)ncnc21 [drawing 13 (R5=Cl, R6=PhCC), N7-((1'R,2'S,3'R,4'S)-2',3',4'-trihydroxycyclopentyl)-4-chloro-5-phenylacetylenyl-pyrrolopyrimidine] | – |
| 0.013 | Nc1ncnc2c1c(I)cn2[C@@H]1C[C@H](O)[C@@H](O)[C@H]1O [drawing 13 (R5=NH2, R6=I), N7-((1'R,2'S,3'R,4'S)-2',3',4'-trihydroxycyclopentyl)-4-amino-5-iodo-pyrrolopyrimidine] | – |
| 0.2 | Nc1ncnc2c1c(-c1ccccc1)cn2[C@@H]1C[C@H](O)[C@@H](O)[C@H]1O [drawing 13 (R5=NH2, R6=Ph), N7-((1'R,2'S,3'R,4'S)-2',3',4'-trihydroxycyclopentyl)-4-amino-5-phenyl-pyrrolopyrimidine] | – |
| 0.23 | Nc1ncnc2c1c(C#Cc1ccccc1)cn2[C@@H]1C[C@H](O)[C@@H](O)[C@H]1O [drawing 13 (R5=NH2, R6=PhCC), N7-((1'R,2'S,3'R,4'S)-2',3',4'-trihydroxycyclopentyl)-4-amino-5-phenylacetylenyl-pyrrolopyrimidine] | – |
| 0.3 | Nc1ncnc2c1c(CCc1ccccc1)cn2[C@@H]1C[C@H](O)[C@@H](O)[C@H]1O [drawing 13 (R5=NH2, R6=PhCH2CH2), N7-((1'R,2'S,3'R,4'S)-2',3',4'-trihydroxycyclopentyl)-4-amino-5-((2phenyl)ethyl)-pyrrolopyrimidine] | – |
| 0.1 | O[C@@H]1[C@H](O)[C@@H](O)C[C@H]1n1cc(I)c2c(Nc3ccccc3)ncnc21 [drawing 13 (R5=NHPh, R6=I), N7-((1'R,2'S,3'R,4'S)-2',3',4'-trihydroxycyclopentyl)-4-(phenyl)amino-5-iodo-pyrrolopyrimidine] | – |
| 0.003 | O[C@@H]1[C@H](O)[C@@H](O)C[C@H]1n1cc(-c2ccccc2)c2c(Nc3ccccc3)ncnc21 [drawing 13 (R5=NHPh, R6=Ph), N7-((1'R,2'S,3'R,4'S)-2',3',4'-trihydroxycyclopentyl)-4-(phenyl)amino-5-phenyl-pyrrolopyrimidine] | – |
| 0.015 | O[C@@H]1[C@H](O)[C@@H](O)C[C@H]1n1cc(C#Cc2ccccc2)c2c(C#Cc3ccccc3)ncnc21 [drawing 13 (R5=PhCC, R6=PhCC), N7-((1'R,2'S,3'R,4'S)-2',3',4'-trihydroxycyclopentyl)-4,5-bis-phenylacetylenyl-pyrrolopyrimidine] | – |
| 0.02 | CN(C)[C@H]1C[C@@H](n2cc(I)c3c(Cl)ncnc32)[C@H](O)[C@@H]1O [drawing 14 (R4=(CH3)2N, R5=Cl, R6=I), N7-((1'R,2'S,3'R,4'S)-2',3'-dihydroxy-4'-(dimethyl)amino-cyclopentyl)-4-chloro-5-iodo-pyrrolopyrimidine] | – |
